Laboratory results: publication PMC10952572, “Improved PIEZO1 agonism through 4‐benzoic acid modification of Yoda1” (British Journal of Pharmacology, 2023)

Target: T1, PIEZO1 channels endogenously expressed in HUVECs (Homo sapiens, UniProt Q92508)
T1 construct: HUVECs, which are a physiologically relevant cell type that endogenously expresses PIEZO1 channels; host or cells: HUVEC
Experiment: Intracellular Ca2+ measurement in HUVECs
Assay type: cell-based
Conditions: peak ΔCa2+i, Hill fit, read-out: EC50 (estimated concentration for 50% effect)
Protocol: Human umbilical vein endothelial cells (HUVECs) purchased from PromoCell (#C‐12203) were maintained in endothelial cell […] medium 2 (ECGM‐2, PromoCell #C‐22111) supplemented with 500 pg·ml^−1 recombinant human vascular endothelial growth factor 165, 10 ng·ml^−1 recombinant human basic fibroblast growth factor, 200 ng·ml^−1 hydrocortisone, 22.5 μg·ml^−1 heparin and 2% (vol./vol.) fetal calf serum. […] After washing the cell monolayer with D‐PBS (Sigma #D8537), 2 ml pre‐warmed 0.05% trypsin– EDTA (Gibco #25300054) was added to 75 cm^2 flasks until the cells had detached (between 2 and 5 min at 37°C). Complete ECGM‐2 (8 ml) was added to inhibit the trypsin, the cells were counted and their density was adjusted before seeding into fresh vessels for maintenance cultivation or experimental purposes. The medium for maintenance of cultures was completely refreshed every 48 h. HUVECs were used for experiments after a minimum of three and a maximum of five passages. […]
HEK 293‐TREx cells and their stably transfected derivatives or transiently transfected HEK 293 or HeLa cells were seeded at a density of 7.5 × 10^4 cells per well into poly‐D‐lysine‐coated 96‐well plates. […] Measurements were made at room temperature on a 96‐well fluorescence plate reader (FlexStation 3, Molecular Devices, Sunnyvale, CA, USA) controlled by SoftMax Pro software v7.0.3. […]

T1 sequence (Q92508 whole entry): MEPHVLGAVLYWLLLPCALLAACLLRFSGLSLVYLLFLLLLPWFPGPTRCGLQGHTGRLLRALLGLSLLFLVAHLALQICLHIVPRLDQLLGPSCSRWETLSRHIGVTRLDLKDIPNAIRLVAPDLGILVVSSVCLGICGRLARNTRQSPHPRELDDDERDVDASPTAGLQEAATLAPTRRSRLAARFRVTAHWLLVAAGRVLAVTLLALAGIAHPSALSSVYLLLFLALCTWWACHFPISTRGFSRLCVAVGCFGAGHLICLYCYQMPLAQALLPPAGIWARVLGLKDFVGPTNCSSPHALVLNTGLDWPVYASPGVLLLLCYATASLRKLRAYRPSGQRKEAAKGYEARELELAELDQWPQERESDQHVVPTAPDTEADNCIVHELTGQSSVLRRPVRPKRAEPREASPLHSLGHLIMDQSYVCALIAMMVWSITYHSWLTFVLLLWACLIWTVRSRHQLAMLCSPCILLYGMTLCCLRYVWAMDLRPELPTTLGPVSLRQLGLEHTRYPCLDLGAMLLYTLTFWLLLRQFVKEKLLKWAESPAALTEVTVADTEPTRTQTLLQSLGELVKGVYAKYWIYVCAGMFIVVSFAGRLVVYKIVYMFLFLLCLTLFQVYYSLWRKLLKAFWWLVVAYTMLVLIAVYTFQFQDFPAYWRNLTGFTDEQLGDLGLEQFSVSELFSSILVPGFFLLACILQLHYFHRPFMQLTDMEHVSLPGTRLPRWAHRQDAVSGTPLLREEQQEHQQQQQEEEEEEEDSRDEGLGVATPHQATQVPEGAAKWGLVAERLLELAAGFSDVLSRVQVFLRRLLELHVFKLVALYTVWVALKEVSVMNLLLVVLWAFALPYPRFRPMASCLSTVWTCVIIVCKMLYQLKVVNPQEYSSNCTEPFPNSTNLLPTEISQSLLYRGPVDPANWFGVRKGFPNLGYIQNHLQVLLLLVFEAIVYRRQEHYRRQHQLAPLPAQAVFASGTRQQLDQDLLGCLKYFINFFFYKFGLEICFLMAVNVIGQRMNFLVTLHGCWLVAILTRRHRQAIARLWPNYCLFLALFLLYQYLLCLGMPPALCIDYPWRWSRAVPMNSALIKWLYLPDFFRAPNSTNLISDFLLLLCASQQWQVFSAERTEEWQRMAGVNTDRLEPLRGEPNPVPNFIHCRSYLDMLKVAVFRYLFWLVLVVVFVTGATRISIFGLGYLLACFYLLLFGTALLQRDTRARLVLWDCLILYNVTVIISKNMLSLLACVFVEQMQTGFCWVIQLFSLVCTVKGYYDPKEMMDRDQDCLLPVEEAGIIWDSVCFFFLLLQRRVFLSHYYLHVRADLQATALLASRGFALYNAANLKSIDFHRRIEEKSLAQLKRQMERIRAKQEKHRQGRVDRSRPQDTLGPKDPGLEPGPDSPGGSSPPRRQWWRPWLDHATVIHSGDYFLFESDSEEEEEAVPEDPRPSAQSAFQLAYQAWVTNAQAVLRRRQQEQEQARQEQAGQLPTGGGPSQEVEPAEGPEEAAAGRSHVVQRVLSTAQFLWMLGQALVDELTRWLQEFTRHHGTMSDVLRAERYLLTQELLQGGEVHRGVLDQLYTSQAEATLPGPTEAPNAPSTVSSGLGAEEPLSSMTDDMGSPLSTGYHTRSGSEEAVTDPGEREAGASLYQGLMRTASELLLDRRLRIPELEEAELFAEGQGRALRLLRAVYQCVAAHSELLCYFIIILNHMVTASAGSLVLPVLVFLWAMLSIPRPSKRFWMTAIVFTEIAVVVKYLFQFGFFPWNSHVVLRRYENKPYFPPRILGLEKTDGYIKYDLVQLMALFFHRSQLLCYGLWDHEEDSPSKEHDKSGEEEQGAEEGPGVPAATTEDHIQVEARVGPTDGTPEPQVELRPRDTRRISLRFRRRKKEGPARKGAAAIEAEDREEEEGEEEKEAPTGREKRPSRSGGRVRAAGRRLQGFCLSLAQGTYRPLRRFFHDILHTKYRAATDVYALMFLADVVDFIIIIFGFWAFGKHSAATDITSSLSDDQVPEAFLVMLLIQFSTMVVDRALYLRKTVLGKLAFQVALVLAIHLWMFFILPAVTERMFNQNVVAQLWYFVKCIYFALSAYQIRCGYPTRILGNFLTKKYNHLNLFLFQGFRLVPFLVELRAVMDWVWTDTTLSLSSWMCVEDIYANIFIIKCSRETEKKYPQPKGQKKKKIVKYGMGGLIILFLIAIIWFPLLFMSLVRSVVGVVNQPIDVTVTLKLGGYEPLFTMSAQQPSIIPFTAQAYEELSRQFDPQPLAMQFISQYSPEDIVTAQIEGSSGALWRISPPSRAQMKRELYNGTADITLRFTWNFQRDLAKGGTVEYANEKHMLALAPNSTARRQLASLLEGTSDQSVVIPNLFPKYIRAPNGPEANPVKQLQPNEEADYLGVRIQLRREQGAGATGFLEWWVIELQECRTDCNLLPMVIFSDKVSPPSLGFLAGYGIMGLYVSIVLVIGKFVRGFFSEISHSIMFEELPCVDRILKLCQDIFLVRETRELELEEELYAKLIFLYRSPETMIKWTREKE

Row | Structure (SMILES) | EC50 [nM]
1 | O=C(O)c1ccc(-c2nnc(SCc3c(Cl)cccc3Cl)s2)cc1 [KC159] | 2280
2 | O=C([O-])c1ccc(-c2nnc(SCc3c(Cl)cccc3Cl)s2)cc1.[K+] [KC289] | 1140
